From PMC12267471, “Discovery of natural scaffolds as HER2 inhibitors for breast cancer: virtual screening, molecular dynamics, and biological characterization with selectivity profiling” (Scientific Reports, 2025)

Columns and labels:
HER2 kinase = target: T1, HER2 kinase (Homo sapiens, UniProt P04626); experiment: Z'-LYTE Kinase Assay-Tyr6 Peptide biochemical HER2 kinase assay; details: cell-free Z'-LYTE, Tyr6 peptide substrate; read-out: IC50, inhibition of ATP-induced HER2 phosphorylation
T1 construct: HER2 purified kinase domain (amino acids 676–1255); purchased Thermo Fischer Scientific PV3590
T1 sequence (P04626 676-1255): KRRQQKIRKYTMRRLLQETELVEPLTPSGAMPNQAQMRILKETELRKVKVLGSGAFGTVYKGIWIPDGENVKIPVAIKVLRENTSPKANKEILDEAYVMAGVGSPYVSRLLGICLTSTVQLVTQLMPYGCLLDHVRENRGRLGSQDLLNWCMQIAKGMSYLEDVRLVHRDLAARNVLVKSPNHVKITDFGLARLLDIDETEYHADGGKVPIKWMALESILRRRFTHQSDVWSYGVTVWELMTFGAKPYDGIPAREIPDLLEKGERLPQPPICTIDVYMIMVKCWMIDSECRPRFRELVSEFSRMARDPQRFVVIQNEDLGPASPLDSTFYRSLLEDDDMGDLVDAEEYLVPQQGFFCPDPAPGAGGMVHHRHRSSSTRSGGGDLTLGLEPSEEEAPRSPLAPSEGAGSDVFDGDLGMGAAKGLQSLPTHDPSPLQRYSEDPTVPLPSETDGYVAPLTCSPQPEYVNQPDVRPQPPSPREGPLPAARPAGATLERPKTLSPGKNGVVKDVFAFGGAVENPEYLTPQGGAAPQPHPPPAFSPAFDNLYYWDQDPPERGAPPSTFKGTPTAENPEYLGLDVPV
Description: The Z’-LYTE™ Kinase Assay-Tyr6 Peptide kit (Thermo Fischer Scientific™, Madison, WI, USA) was employed to evaluate the potential of selected natural products to suppress the catalytic activity of HER2 kinase. The assay adopts a Fluorescence Resonance Energy Transfer (FRET) based method in a cell-free coupled-enzyme format with no use of antibodies. The assay method mainly relies on the difference in sensitivity of phosphorylated and non-phosphorylated peptides to proteolytic cleavage. This method is a ratio metric method that calculates the Emission Ratio of donor emission divided by acceptor emission after excitation of the donor fluorophore at 400 nm. In this assay, 20 µL/well reactions containing kinase buffer, 200 µM ATP, 4µM Z’-LYTE Tyr6 Peptide substrate, 2500 ng/mL HER2 kinase, and drugs of interest functioning as inhibitors were set up in 96-well plates. Each well received 10 µL of site-specific protease development solution after one hour of room temperature incubation. The incubation continued for a full hour. Following process termination, the kinase inhibitory activity and/or peptide substrate cleavage status were assessed using a plate reader (BioTek FLx800™) to measure the ratio of fluorescence signal at 445 nm (coumarin)/520 nm (fluorescein).
The IC50 value for each natural product was computed using XLfit® 4.1 software (ID Business Solutions Inc. (IDBS), Emeryville CA), applying non-linear regression of log concentration against the percentage of HER2 inhibition.
Utilizing the Z’-LYTE™ Kinase Assay-Tyr6 Peptide kit as a cell-free system for evaluating the inhibitory activity of HER2, the five natural products were evaluated for their capacity to inhibit HER2 phosphorylation. Since its kinase catalysis is necessary for all HER2-mediated activities, we attempted at this initial stage to validate the HER2 inhibitory ability of the five in silico hits directly on the HER2 purified kinase domain (amino acids 676–1255), that was in vitro phosphorylated to attain the maximum level of intrinsic kinase activity. In this assay, the substrate was Z’-LYTE™ Tyr6 peptide; thus, the changes in its phosphorylation can directly correlate with the HER2 kinase activity. In the meantime, tyrphostin AG 1478 was used as a positive control to ensure the validity of the assay. Lapatinib (Tykerb®) was included as a second positive control to benchmark virtual hits’ performance against clinically approved standards.

SKBR3 cells [1] = experiment: Wound healing assay, SKBR3; type: cell-based; details: Homo sapiens, SK-BR-3
Protocol: (§1) In a sterile flat-bottom 24-well plate, SKBR3 and BT-474 breast cancer cells were plated at a density of 1 × 10^5 cells/well. […] Wounds were then inflicted across each cell monolayer using a sterile 200 µL pipette tip. Media was aspirated, and cells were washed twice with PBS to remove floating cells and cell debris. Fresh serum-free media was placed up against the well wall to cover the bottom of the well and prevent further cell detachment. Incubation of cells was resumed for five hours at 37 °C in a humidified CO2 incubator. Subsequently, the media were substituted with fresh ones containing various doses of liquiritin, oroxin B, or DMSO as a vehicle control (3 replicates/group) along with EGF (100 ng/mL) as a scattering factor. Wound closure was microscopically monitored in vehicle-treated control wells, and the time frame for wound closure was determined to be 72 h. Before the closure of wounds in the vehicle-treated control wells, the media were removed, cells were washed with PBS and completely fixed using cold methanol for 20 min at 4 °C. An inverted VistaVision microscope was used to take pictures of the wounds monitored at zero and 72 h with a VistaVision Still camera (VWR, Radnor, PA).
(§2) Results were expressed as a percentage of cell migration according to the following Equation[16]: [drawing 2]
(§3) Where Tt is the wound thickness in treatment wells, TDMSO is the thickness of the wound in control wells treated by DMSO, and Tº is the thickness of the wound at zero time. Wound thickness was calculated in three or more randomly selected fields per treatment group.

SKBR3 cells [2] = experiment: MTT proliferation assay, SKBR3; type: cell-based, human; details: Homo sapiens, SK-BR-3
BT-474 cells [3] = experiment: Annexin V-FITC/PI apoptosis detection, BT-474; type: cell-based, human; details: BT-474, 3.5 µM, 48 h
Protocol: To evaluate the induction of apoptosis, the translocation of phosphatidylserine to the outer cell membrane, as a hallmark of early apoptosis, was detected by the binding of annexin V, using the Annexin V-FITC Early Apoptosis Detection Kit (BD BioVision). Cells were seeded at a density of 5 × 10^5 cells per 100 mm culture plate and allowed to adhere overnight. […] At the end of the treatment period, cells were harvested by trypsinization, washed twice with ice-cold PBS, and resuspended in 500 µL of chilled 1X Annexin V Binding Buffer. To each sample, 5 µL of Annexin V-FITC conjugate and 5 µL of propidium iodide (PI, 50 µg/mL) were added. The cell suspensions were incubated for 5 minutes on ice in the dark to allow for staining.
Flow cytometric analysis was performed using excitation at 488 nm and emission at 530 nm for FITC detection (FL1 channel) and phycoerythrin emission settings for PI detection (FL2 channel). Data acquisition and analysis were facilitated by Cell Quest software (BD Biosciences), with dot plots divided into four quadrants to distinguish different cell populations: lower left (LL) for viable, non-apoptotic cells (negative for both annexin V and PI); lower right (LR) for early apoptotic cells (annexin V-positive, PI-negative); upper left (UL) for dead or necrotic cells (PI-positive, annexin V-negative); and upper right (UR) for late apoptotic cells (double-positive). All assays were conducted in triplicate to ensure reliability and reproducibility.

MCF10A cells = experiment: MTT cytotoxicity assay, non-tumorigenic MCF10A; type: cell-based, human
BT-474 cells [4] = experiment: MTT proliferation assay, BT-474; type: cell-based, human; details: Homo sapiens
BT-474 cells [5] = experiment: Wound healing assay, BT-474; type: cell-based; details: Homo sapiens
Protocol: as §1, §2, §3

IC50 (HER2 kinase): 0.0185 µM | IC50 (SKBR3 cells [1]; SKBR3, wound healing, read-out: IC50, cell migration): 16.9 µM | IC50 (SKBR3 cells [2]; SKBR3, MTT, 48 h (Table S8), read-out: Cell growth inhibition IC50): 6.4 µM | IC50 (SKBR3 cells [2]; SKBR3, Table S9, read-out: IC50): 6.4 ± 0.2 µM | IC50 (BT-474 cells [4]; BT-474, MTT, 48 h (Table S8), read-out: Cell growth inhibition IC50): 3.5 µM | IC50 (BT-474 cells [4]; BT-474, Table S9, read-out: IC50): 3.5 ± 0.1 µM | IC50 (BT-474 cells [5]; BT-474, wound healing, read-out: IC50, cell migration): 10.4 µM
Structure (SMILES): O=C1C[C@@H](c2ccc(O[C@@H]3O[C@H](CO)[C@@H](O)[C@H](O)[C@H]3O)cc2)Oc2cc(O)ccc21 [Liquiritin]
inhibition at 3 µM (SKBR3 cells [1]; SKBR3, 3 µM, 72 h, read-out: inhibition of cell migration): 22.1% | inhibition at 6 µM (SKBR3 cells [1]; SKBR3, 6 µM, 72 h, read-out: inhibition of cell migration): 32.8% | inhibition at 10 µM (SKBR3 cells [1]; SKBR3, 10 µM, 72 h, read-out: inhibition of cell migration): 38.2% | inhibition at 20 µM (SKBR3 cells [1]; SKBR3, 20 µM, 72 h, read-out: inhibition of cell migration): 54.1% | early apoptosis (Annexin V+/PI−) cells (BT-474 cells [3]): 22.05% | late apoptosis (Annexin V+/PI+) cells (BT-474 cells [3]): 11.44% | necrosis (BT-474 cells [3]): 3.7% | IC50 (MCF10A cells; Homo sapiens, MCF-10A, MCF10A, MTT, 24 h): 27.9 ± 1.1 µM | selectivity index (SI) (MCF10A cells; IC50 MCF10A / IC50 BT-474): 8 | selectivity index (SI) (MCF10A cells; IC50 MCF10A / IC50 SKBR3): 4.4 | inhibition at 2 µM (BT-474 cells [5]; BT-474, 2 µM, 72 h, read-out: inhibition of cell migration): 20% | inhibition at 3 µM (BT-474 cells [5]; BT-474, 3 µM, 72 h, read-out: inhibition of cell migration): 25.6% | inhibition at 5 µM (BT-474 cells [5]; BT-474, 5 µM, 72 h, read-out: inhibition of cell migration): 31.2% | inhibition at 10 µM (BT-474 cells [5]; BT-474, 10 µM, 72 h, read-out: inhibition of cell migration): 50.6%
